Assay results: patent publication US6890933B1, “Kinesin inhibitors” (President and Fellows of Harvard College, priority 2000, dated 2005)
“Also recorded” adds a separate entry of the source. Read-outs that look alike come from different tables or passages of the source.

Assays:
human Eg5 = molecular target: T1, human Eg5 (Homo sapiens, UniProt P52732); test: In vitro NADH enzyme coupled ATPase assay with purified recombinant human Eg5 (Eg5-405); type: biochemical
T1 construct: human Eg5 (N-terminal 405 amino acids and 6-His tagged at C terminus); made in house; host or cells: E. coli BL21 pLysS (DE3), plasmid pRSETa
T1 sequence (P52732 1-405 limits assumed): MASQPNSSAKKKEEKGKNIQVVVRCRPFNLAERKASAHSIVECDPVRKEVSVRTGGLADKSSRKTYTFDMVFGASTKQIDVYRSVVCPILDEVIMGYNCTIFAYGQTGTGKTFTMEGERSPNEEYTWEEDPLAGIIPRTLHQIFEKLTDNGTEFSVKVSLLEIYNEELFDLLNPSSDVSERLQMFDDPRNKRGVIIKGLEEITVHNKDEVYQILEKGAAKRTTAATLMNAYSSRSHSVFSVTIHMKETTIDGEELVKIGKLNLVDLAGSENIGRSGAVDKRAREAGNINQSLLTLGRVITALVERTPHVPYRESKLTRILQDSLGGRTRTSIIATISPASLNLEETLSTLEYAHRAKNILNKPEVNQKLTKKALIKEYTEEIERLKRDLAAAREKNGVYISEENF
Source text: FIG. 7 depicts a description of the NADH enzyme coupled ATPase assay used to study the inhibition of the ability of purified human recombinant Eg5 to hydrolyze ATP in the presence and absence of 22C16 and monastrol.
(§1) In vitro NADH Enzyme Coupled A TPase: (variation on Methods Described in Crevel, Lockhart, and Cross. J. Mol. Biol. (1997) 273, 160-170.)
For a brief description as the ATPase assay used in the present example, see FIG. 7.
(§2) A solution containing the microtubule resuspension buffer was supplemented with 1 mM Mg-ATP, 100 uM nicotinamide adenine dinucleotide (NADH), 1 mM phosphoenol pyruvate, 5 ug/ml pyruvate kinase, 7.5 ug/ml lactate dehydrogenase, 0.7 uM resuspended microtubules, and 0.5% dimethylsulfoxide (DMSO).
Next, serial dilutions of the compound 22C16 were prepared in the supplemented microtubule resuspension buffer. Purified recombinant human Eg5 protein was added resulting in a final concentration of 50 uM. The subsequent fluorescent reaction was measured in NUNC black walled 384 well plates at 340 nm using a Wallac plate reader.

[1] = molecular target: T2, conventional human kinesin (Homo sapiens, UniProt P33176); test: NADH enzyme coupled ATPase assay with conventional human kinesin (K560); type: biochemical; conditions: N-terminal 560 amino acids, 6-His tag
T2 construct: human kinesin (N-terminal 560 amino acids of full length protein followed by 6-His tag at C terminus); made in house; host or cells: E. coli BL21 pLysS (DE3) (the purification section covers Eg5-405 and K560)
T2 sequence (P33176 1-560): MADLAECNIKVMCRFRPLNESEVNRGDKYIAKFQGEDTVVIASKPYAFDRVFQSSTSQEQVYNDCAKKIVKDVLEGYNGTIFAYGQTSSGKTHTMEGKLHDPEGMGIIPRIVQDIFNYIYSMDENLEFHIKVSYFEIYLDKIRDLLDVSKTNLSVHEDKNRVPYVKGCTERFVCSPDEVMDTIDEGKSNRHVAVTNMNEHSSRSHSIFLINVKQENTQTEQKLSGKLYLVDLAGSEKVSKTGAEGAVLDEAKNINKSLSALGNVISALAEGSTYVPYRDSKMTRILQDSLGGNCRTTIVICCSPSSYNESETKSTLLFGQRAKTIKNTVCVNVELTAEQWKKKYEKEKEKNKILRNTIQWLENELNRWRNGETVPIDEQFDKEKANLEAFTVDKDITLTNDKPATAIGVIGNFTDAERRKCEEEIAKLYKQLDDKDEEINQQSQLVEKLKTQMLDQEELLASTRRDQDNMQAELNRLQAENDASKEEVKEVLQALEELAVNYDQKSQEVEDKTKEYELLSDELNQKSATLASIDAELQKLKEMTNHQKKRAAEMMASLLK
Method: Since the effect of 22C16 on mono-astral formation in mammalian cells was similar to that of cells treated with monastrol, the ability of 22C16 to inhibit kinesins was examined.
Purification of Eg5-405 and K560 (560 Amino Acid Kinesin Construct):
as §1, §2

BS-C-1 cells = test: Cell assay for formation of mono-astral spindle structures (immunofluorescence, DAPI / anti-alpha-tubulin); type: cell-based, monkey; conditions: for IC50: Primates, BSC-1, BS-C-1 cells, direct comparison, unpublished observations of Mayer and Mitchison, read-out: IC50 (median inhibitory concentration), formation of mono-astral structures
Method: When the effects of 22C16 and monastrol on microtubule structure were directly compared, it was shown by examining formation of mono-astral structures that 22C16 has an IC50 (median inhibitory concentration) of approximately 2 uM as compared to the IC50 of approximately 20 uM for monastrol (Mayer and Mitchison, unpublished observations). For experimental details on the cell assay to determine mono-astral structures, see Mayer et al. Science 286:971-974, 1999. Images of live BS-C-1 cells were taken as described (Cramer et al. Curr. Opin. Cell. Biol. 67:82, 1994). Briefly, for immunofluorescence, BS-C-1 cells were stained with DAPI (4′,6-diamidino-2-phenylindole; Sigma-Aldrich) to visualize DNA and anti-α-tubulin (DM1 A; Sigma-Aldrich, St. Louis) to visualize spindle structure.

full length Xenopus Eg5 = molecular target: T3, full length Xenopus Eg5 (Xenopus laevis, UniProt P28025); test: Microtubule motility driven by full length Xenopus Eg5, with washout; type: biochemical; conditions: full length Xenopus Eg5, washout experiment
T3 construct: Full length Xenopus Eg5 was expressed in baculovirus according to standard protocols; made in house
T3 sequence (P28025 1-1067): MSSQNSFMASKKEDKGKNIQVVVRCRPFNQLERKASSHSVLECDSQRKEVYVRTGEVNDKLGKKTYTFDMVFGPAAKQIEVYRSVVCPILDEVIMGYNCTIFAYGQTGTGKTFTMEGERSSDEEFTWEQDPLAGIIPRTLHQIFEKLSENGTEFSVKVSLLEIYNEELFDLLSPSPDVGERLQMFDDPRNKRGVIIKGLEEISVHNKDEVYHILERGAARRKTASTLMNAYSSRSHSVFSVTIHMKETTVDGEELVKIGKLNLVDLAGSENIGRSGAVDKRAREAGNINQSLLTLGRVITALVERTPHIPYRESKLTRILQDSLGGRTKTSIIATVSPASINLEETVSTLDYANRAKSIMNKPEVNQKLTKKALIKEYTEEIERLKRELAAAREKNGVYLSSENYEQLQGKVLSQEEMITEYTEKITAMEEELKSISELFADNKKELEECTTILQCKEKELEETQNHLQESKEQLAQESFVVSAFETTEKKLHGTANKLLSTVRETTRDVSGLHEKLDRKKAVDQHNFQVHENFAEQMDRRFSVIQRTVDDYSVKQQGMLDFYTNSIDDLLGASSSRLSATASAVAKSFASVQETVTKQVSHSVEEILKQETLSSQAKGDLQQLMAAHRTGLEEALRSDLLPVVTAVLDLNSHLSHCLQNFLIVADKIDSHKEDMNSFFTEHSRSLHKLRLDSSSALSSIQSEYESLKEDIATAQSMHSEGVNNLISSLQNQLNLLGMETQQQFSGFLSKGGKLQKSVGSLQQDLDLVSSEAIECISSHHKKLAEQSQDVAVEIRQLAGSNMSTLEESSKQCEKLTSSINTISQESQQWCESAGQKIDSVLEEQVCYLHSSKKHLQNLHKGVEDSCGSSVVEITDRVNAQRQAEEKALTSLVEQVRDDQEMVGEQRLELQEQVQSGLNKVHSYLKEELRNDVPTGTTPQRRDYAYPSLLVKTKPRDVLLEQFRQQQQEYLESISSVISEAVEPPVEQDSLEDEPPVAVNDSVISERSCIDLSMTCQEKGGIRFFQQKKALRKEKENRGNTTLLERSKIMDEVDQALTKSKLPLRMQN
Method: FIG. 2 depicts the results of experiments examining the motility activity of full length Xenopus Eg5 with and without the beta-carboline, 22C16.
In addition, the ability of 22C16 to inhibit microtubule motility driven by Eg5 was examined. For experimental protocols and details, see Mayer et al. Science 286:971-974, 1999. […] For the washout, Eg5-driven microtubule motility in the presence of 22C16 was measured. The assay chamber was then depleted of 22C16 and motility was immediately measured again. Therefore, the results of the experiment depicted in FIG. 2 provide direct evidence that 22C16 inhibits the microtubule motility driven by Eg5.

BSC1 cells = type: cell-based, monkey

SMILES | IC50 (human Eg5) | inhibition of ATPase activity of human Eg5 (in words) (human Eg5; Eg5 N-terminal 405 amino acids, 6-His tagged) | potency relative to monastrol in inhibition of ATPase activity of human kinesin Eg5 (human Eg5; ratio of IC50 values) | inhibition of ATPase activity of conventional human kinesin (in words) [1] | IC50 (BS-C-1 cells) | spindle phenotype in mitotic cells (in words) (BS-C-1 cells; mitotic mammalian (BSC1) cells) | inhibition of microtubule motility driven by Eg5 (in words) (full length Xenopus Eg5) | effect on Golgi (in words) (BSC1 cells) | effect on interphase microtubules (in words) (BSC1 cells) | IC50 (human Eg5; purified recombinant human Eg5, microtubules, 1 mM Mg-ATP, read-out: IC50, inhibition of Eg5 ATPase activity) | IC50 lower than monastrol (fold), ATPase assay of Example 2 (human Eg5; optically purified trans stereoisomer versus monastrol)
CCCCN1C(=O)C2Cc3c([nH]c4ccccc34)C(c3cccc(O)c3)N2C1=O (stereo not drawn) [22C16] | 1.1 µM | block the ATPase activity; also recorded: capable of inhibiting the ATPase activity; also recorded: inhibits the ability of Eg5 | approximately 5 times | but not conventional human kinesin | ~2 µM | caused the formation of monopolar spindles; also recorded: formation of mono-astral spindles; also recorded: capable of arresting cells in mitosis; also recorded: form a mono-astral microtubule array surrounded by a ring of chromosomes | acts reversibly to inhibit the motility of Eg5; also recorded: reversibly inhibits microtubule motility | fragmented the Golgi; also recorded: fragmentation of the Golgi | did not depolymerize interphase microtubules; also recorded: without affecting interphase microtubules | – | –
CCOC(=O)C1=C(C)NC(=S)NC1c1cccc(O)c1 (stereo not drawn) [monastrol, reference compound] | – | – | – | – | ~20 µM | – | – | – | – | 5.3 µM | –
CCCCN1C(=O)C2Cc3c([nH]c4ccccc34)C(c3cccc(O)c3)N2C1=O (stereo not drawn) [trans isomer of monastroline] | – | – | – | – | – | – | – | – | – | – | approximately 8 times
